Laboratory results reported in patent US11191705B2, “Personal cleansing compositions” (The Procter & Gamble Company, priority 2018, dated 2021).

Tested on: Staphylococcus aureus ATCC 6538
Test: Combinatorial Minimum Inhibitory Concentration (cMIC) test
Assay type: cell-based
Parameters: key to bacteria growth (values equal to or higher than 10 mean growth, less than 10 no growth): % of OD620 of control well without actives (full growth)
Details: for reduction of level when combined (MIC alone / level in combination): 33.3/3.13 for hinokitiol, 12.5/6.25 for piroctone olamine
Experimental: One way to combat the issues of cost of a material is to combine it with a lower cost material. This can be complicated depending on whether the materials interact, what each of the materials target, whether they can complement one another, how much of each is needed for efficacy, etc. This is considered to be an additive interaction between the materials, i.e. where each is doing what one would expect based on their individual properties. Occasionally, when materials are added together the combination performs better than what would be expected based on the individual performances. This is considered a synergistic relationship. Synergy can be determined through the use of a Combinatorial Minimum Inhibitory Concentration (“cMIC”) test. This can be used to determine the combinatorial effects of two chemicals on anti-bacterial activity in a tissue culture setting.
It has been discovered that there is a synergistic relationship between hinokitiol and a 2-pyridinol N-oxide material, piroctone olamine. cMIC testing was conducted utilizing Staphylococcus aureus as the bacteria. […] When combined, they were efficacious at levels of 6.25 ppm piroctone olamine and only 3.13 ppm of hinokitiol. Thus, a benefit is seen where the combination of piroctone olamine and hinokitiol comprise about 9 ppm or more by weight of the cleansing composition. Thus, hinokitiol and piroctone olamine levels are reduced by 10.7 times (33.3/3.13) and 2 times (12.5/6.25), respectively. […] Thus, combining piroctone olamine and hinokitiol allows for the use of less of each material and can reduce costs.
Combinatorial Minimum Inhibitory Concentration (cMIC) Method
A Combinatorial Minimum Inhibitory Concentration (“cMIC”) is used to determine the combinatorial effects of two chemicals on anti-bacterial activity in a tissue culture setting. Herein, the cMIC is a measure of the Minimum Inhibitory concentrations (MIC) of Hinokitiol in combination with Piroctone Olamine or vice versa.
1. Method Overview: • a. Each cMIC assay is run in triplicates. • b. Staphylococcus aureus ATCC 6538 is cultured on tryptic soy agar (TSA) (Oxoid CM0131) over 24 hours. The single colonies are then transferred into saline and mixed through vortex to obtain an optical density (OD) of 0.08-0.13 at 620 nm. 200 μL of this bacterial suspension is added to 19.8 mL of Mueller Hinton Broth (MHB) (BD 212322). This gives 5×10^5 cfu/mL. 100 μL of this bacteria-MHB mix is added to a 96 well flat-bottomed plate (TRP 92196). • c. Hinokitiol is pipetted into the wells in varying concentrations as indicated below. • d. Piroctone Olamine is pipetted into the wells in varying concentrations, as indicated below. • e. The plates are then read using a spectrophotometer at 620 nm. This is the 0-hour reading. • f. The plates are incubated at 37° C. between 18-24 hours with shaking at 50 rpm. • g. The optical density of the plate is then measured using a spectrophotometer at 620 nm. • h. The OD value is calculated as subtraction of the readings between 18-24 hour and the 0-hour. • i. cMIC is determined as the minimal concentration of Hinokitiol in combination with Piroctone Olamine or vice versa, corresponding to the well whose OD value is less than 10% of the OD value of the control well without Hinokitiol and Piroctone Olamine (full growth).

| Compound | reduction of level when combined (MIC alone / level in combination) [times] | bacteria growth (values equal to or higher than 10 mean growth, less than 10 no growth) (Hinokitiol 3.13 ppm alone (Piroctone Olamine 0 ppm)) | bacteria growth (values equal to or higher than 10 mean growth, less than 10 no growth) (Hinokitiol 6.25 ppm alone (Piroctone Olamine 0 ppm)) | bacteria growth (values equal to or higher than 10 mean growth, less than 10 no growth) (Hinokitiol 12.5 ppm alone (Piroctone Olamine 0 ppm)) | bacteria growth (values equal to or higher than 10 mean growth, less than 10 no growth) (Hinokitiol 25 ppm alone (Piroctone Olamine 0 ppm)) | bacteria growth (values equal to or higher than 10 mean growth, less than 10 no growth) (Hinokitiol 33.5 ppm alone (Piroctone Olamine 0 ppm)) | bacteria growth (values equal to or higher than 10 mean growth, less than 10 no growth) (Hinokitiol 42.5 ppm alone (Piroctone Olamine 0 ppm)) | bacteria growth (values equal to or higher than 10 mean growth, less than 10 no growth) (Hinokitiol 50 ppm alone (Piroctone Olamine 0 ppm)) | Bacterial growth (Piroctone olamine 0 ppm, Hinokitiol 33.5 ppm) | MIC (Staphylococcus aureus, ATCC6538, single material alone, read-out: minimum inhibitory concentration (MIC) against Staphylococcus aureus) [µg/mL] | bacteria growth (values equal to or higher than 10 mean growth, less than 10 no growth) (Piroctone Olamine 3.13 ppm alone (Hinokitiol 0 ppm)) | bacteria growth (values equal to or higher than 10 mean growth, less than 10 no growth) (Piroctone Olamine 6.25 ppm alone (Hinokitiol 0 ppm)) | bacteria growth (values equal to or higher than 10 mean growth, less than 10 no growth) (Piroctone Olamine 12.5 ppm alone (Hinokitiol 0 ppm)) | bacteria growth (values equal to or higher than 10 mean growth, less than 10 no growth) (Piroctone Olamine 15 ppm alone (Hinokitiol 0 ppm)) | bacteria growth (values equal to or higher than 10 mean growth, less than 10 no growth) (Piroctone Olamine 17.5 ppm alone (Hinokitiol 0 ppm)) | bacteria growth (values equal to or higher than 10 mean growth, less than 10 no growth) (Piroctone Olamine 20 ppm alone (Hinokitiol 0 ppm)) | bacteria growth (values equal to or higher than 10 mean growth, less than 10 no growth) (Piroctone Olamine 25 ppm alone (Hinokitiol 0 ppm)) | Bacterial growth (Piroctone olamine 6.25 ppm, Hinokitiol 0 ppm) | minimum inhibitory concentration (MIC) against Staphylococcus aureus (single material alone) [ppm] |
| --- | --- | --- | --- | --- | --- | --- | --- | --- | --- | --- | --- | --- | --- | --- | --- | --- | --- | --- | --- |
| CC(C)c1cccc(=O)c(O)c1 [Hinokitiol] | 10.7 | 78 | 103 | 65 | 17 | 4 | 2 | 1 | Yes | 33.3 |  |  |  |  |  |  |  |  |  |
| Cc1cc(CC(C)CC(C)(C)C)n(O)c(=O)c1.NCCO (centres unmarked) [Piroctone Olamine, piroctone olamine] | 2 |  |  |  |  |  |  |  |  |  | 94 | 46 | 1 | 1 | 1 | 1 | 2 | Yes | 12.5 |
